The values below come from paper PMC4104029, “Mechanism of Action of Compound-13: An α1-Selective Small Molecule Activator of AMPK” (Chemistry & Biology, 2014).

The target in this experiment is T1, fructose-1,6-bisphosphatase-1 (FBP1) (Mus musculus, UniProt Q9QXD6).
T1 construct: made in house; host or cells: E. coli
Briefly: FBP1 enzyme assay. The class given is biochemical. Here is the method:
Figure 1 The AMP Analog C2 Is a Potent AMPK Activator in Cell-Free Assays with Selectivity for α1 Complexes (A) The structure of the endogenous activator of AMPK, AMP; the AMP mimetic, C2; and the classical AMP mimetic, ZMP, and other AMPK activators are shown. […] (B) Recombinant AMPK complexes (α1β1γ1, α2β1γ1, α1β1γ2, and α1β2γ1) expressed in Spodoptera frugiperda were assayed for allosteric activation by AMP or C2. Results are expressed as the increase in activity relative to controls without ligand and represent the mean ± SD for three independent experiments. (C) Enzymes allosterically regulated by AMP (PFK1 and FBP1) or using AMP as a substrate (AMPD1, AK, and 5′-NT) were assayed in the presence of C2 (≤ 100 μM). Enzymes allosterically regulated by AMP were screened for both agonism and antagonism, the latter in the presence of AMP at ≈ EC50. All enzymes were unaffected by [C2] ≤ 100 μM. Representative data are shown for the effects of AMP and C2 on PFK1 and FBP1 activity. Results are representative of three independent experiments conducted on one enzyme preparation. […]

As a reminder, the IC50 is the point on the concentration scale where inhibition reaches its midpoint.

T1 sequence (Q9QXD6 whole entry): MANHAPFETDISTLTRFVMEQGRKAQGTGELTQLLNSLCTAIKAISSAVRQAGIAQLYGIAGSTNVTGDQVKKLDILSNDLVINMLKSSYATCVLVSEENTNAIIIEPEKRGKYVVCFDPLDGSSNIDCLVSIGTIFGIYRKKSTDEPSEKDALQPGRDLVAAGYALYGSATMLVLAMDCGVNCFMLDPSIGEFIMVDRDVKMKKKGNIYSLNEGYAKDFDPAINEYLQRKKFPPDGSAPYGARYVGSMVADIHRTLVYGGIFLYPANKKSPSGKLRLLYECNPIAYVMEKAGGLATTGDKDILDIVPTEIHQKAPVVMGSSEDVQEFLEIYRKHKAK

`Nc1ncnc2c1ncn2[C@@H]1O[C@H](COP(=O)(O)O)[C@@H](O)[C@H]1O` [AMP, reference compound]: where the note is “read-out: IC50, inhibition of FBP1”, the IC50 worked out at 5 µM.

`O=P(O)(O)c1ccc(-c2cc(O)on2)o1` [Compound C2, 5-(5-hydroxyl-isoxazol-3-yl)-furan-2-phosphonic acid]: the “effect on FBP1” value (concentrations up to 100 μM) is on record as “no effect”.
